Source: US11649218B2, “C-Abl tyrosine kinase inhibitory compound embodiments and methods of making and using the same” (The USA, as represented by the Secretary, Dept. of Health …, priority 2018, dated 2023)

Legend:
TLE mice model [1] = assay: Pilocarpine TLE epilepsy model, IP pre-treatment; details: 5 mg/Kg IP each day three days before Pilocarpine
Method: The injected animals were observed by 60 min after the Pilocarpine.

[2] = Pharmacokinetic profile in plasma; format: in vivo, mice; details: 12.5 mg/kg IP
TLE mice model [3] = assay: Pilocarpine-induced status epilepticus (SE) after 15 days of supplemented diet; format: in vivo, mice (C57BL/6)
Method: In this example, the ability of compound embodiments of the present disclosure to increase survival and diminish seizure symptoms in a TLE mice model was evaluated. […] The animals' weights were determined the week before and during the two weeks of c-Abl inhibitors treatment (results are provided in Table 12 and are illustrated graphically in FIG. 28). After 15 days of feeding, status epilepticus (SE) induction was evaluated. The mice were IP injected with Scopolamine (1.5 mg/Kg) and after 15 minutes, the SE was induced by IP injection of Pilocarpine (420 mg/Kg). The animals' behavior and the seizures induction was evaluated according to Racine's scale and the survival was determined during 60 minutes post-SE induction. […] Results are tabulated in Table 13, below and also are illustrated graphically in FIGS. 29A-29D.

hippocampal neurons = assay: Neuronal death induced by Glutamate, MTT cell viability test
Leukemia K562 cell = Leukemia K562 cell proliferation/viability assay (CellTiterGlo, 48 hours); format: cell-based; design: unit not given here; details: K562 cells
Method in brief: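 BCR-Abl-dependent K562 cells treated with compound for 48 hours in an HTS-adapted format. Viability read out with CellTiterGlo reagent.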

[4] = system: P. falciparum strain NF54 asexual parasites; assay: Asexual stage parasite growth inhibition, SYBR Green assay, 72 hours; format: cell-based; details: NF54, 72 hours
Method: In this example, several of the c-Abl inhibitors were tested in the asexual […] strain of P. falciparum parasites for activity against malaria. […] The pre-diluted parasites were dispensed into a 1536-well plate (2.5 μL/well). […] The fluorescence of each well was measured at 520 nm following excitation at 490 nm using a ViewLux platereader (PerkinElmer).

CML (K562) cell line = assay: K562 cell proliferation inhibition by MTT assay, 48 hours; format: cell-based; details: Homo sapiens; K562, 48 hours, determined in different assays
Method: In this example, the ability of two compound embodiments described here, NCGC00373060 and NCGC00373056, to induce cell death in the CML (K562) cell line was evaluated. The leukemia cells were incubated with different concentrations of the compounds for 48 hours, and the cell proliferation inhibition was evaluated by the MTT assay. […] The leukemia cells were incubated with different concentrations of each compound embodiment for 48 hours, and the cell proliferation inhibition was evaluated by the MTT assay.

[5] = Pharmacokinetic profile in brain; format: in vivo, mice; details: 12.5 mg/kg IP
[6] = mean, diet 67 ppm NCGC00373060 or 200 ppm Nilotinib

## O=C1Nc2cc(OC(F)(F)F)ccc2Oc2ccc(-c3ccnc(N4CCNCC4)c3)cc21 [NCGC00373060, 2-(2-(Piperazin-1-yl)pyridin-4-yl)-8-(trifluoromethoxy)dibenzo[b,j][1,4]oxazepin-11(10H)-one]
TLE mice model [1]
  mortality associated to the epileptic status: decreases the mortality associated to the epileptic status
  seizures, latency time: prevented the seizures increasing the latency time
[2]; Time 0.167
  Plasma concentration: 4440 nM
[2]; Time 0.5
  Plasma concentration: 4784 nM
[2]; Time 1
  Plasma concentration: 7844 nM
[2]; Time 2
  Plasma concentration: 4112 nM
[2]; Time 4
  Plasma concentration: 2709 nM
[2]; Time 7
  Plasma concentration: 1723 nM
[2]; Time 24
  Plasma concentration: 581 nM
[2]; Time 48
  Plasma concentration: 138 nM
[2]; Time 72
  Plasma concentration: 70 nM
[2]; Time 96
  Plasma concentration: 36 nM
[2]; Time 120
  Plasma concentration: 11 nM
[2]; Time 168
  Plasma concentration: 4 nM
TLE mice model [3]; individual mice, 60 minutes post-SE induction
  Survival %: 100%
TLE mice model [3]; individual mice, diet 67 ppm NCGC00373060 or 200 ppm Nilotinib
  Latency SE: 19 min
TLE mice model [3]; mean, 60 minutes post-SE induction
  Survival %, mean: 100%
TLE mice model [3]; [6]
  Latency SE, mean: 19 min
  SE %, mean: 40%
Hippocampal neurons
  protection against neuronal death induced by Glutamate: protects neurons against neuronal death induced by Glutamate
Leukemia K562 cell
  Efficacy: −99.1
[4]
  % Killing: 89.9%
[4]; Plasmodium falciparum
  IC50: 1.63 µM
CML (K562) cell line
  AC50: 5 µM
[5]; Time 0.167
  Brain concentration: 0.208 µmol/kg
[5]; Time 0.5
  Brain concentration: 0.275 µmol/kg
[5]; Time 1
  Brain concentration: 0.595 µmol/kg
[5]; Time 2
  Brain concentration: 0.912 µmol/kg
[5]; Time 4
  Brain concentration: 1.351 µmol/kg
[5]; Time 7
  Brain concentration: 1.887 µmol/kg
[5]; Time 24
  Brain concentration: 1.198 µmol/kg
[5]; Time 48
  Brain concentration: 0.493 µmol/kg
[5]; Time 72
  Brain concentration: 0.208 µmol/kg
[5]; Time 96
  Brain concentration: 0.089 µmol/kg
[5]; Time 120
  Brain concentration: 0.044 µmol/kg
[5]; Time 168
  Brain concentration: 0.010 µmol/kg
